In brackets after ≈: the same amount, converted by molar mass.

Assay [1] concerns Escherichia coli. The assay can be described thus: Ratio of compound MIC to ampicillin MIC for Escherichia coli K-12 W3110. The class given is functional, K-12 substr. W3110.
Assay [2] concerns Escherichia coli. Kind of assay: Antibacterial activity against Escherichia coli K-12 W3110 by microdilution method. It counts as functional. The note with it: K-12 substr. W3110.

In the case of `Cc1cn([C@H]2CN(P(=O)(OC[C@@H]3CN(P(=O)(OC[C@@H]4CN(P(=O)(OC[C@@H]5CN(P(=O)(OC[C@@H]6CN(P(=O)(OC[C@@H]7CN(P(=O)(OC[C@@H]8CN(P(=O)(OC[C@@H]9CN(P(=O)(OC[C@@H]%10CNC[C@H](n%11cnc%12c(=O)[nH]c(N)nc%12%11)O%10)N(C)C)C[C@H](n%10cc(C)c(=O)[nH]c%10=O)O9)N(C)C)C[C@H](n9cnc%10c(=O)[nH]c(N)nc%109)O8)N(C)C)C[C@H](n8cnc9c(N)ncnc98)O7)N(C)C)C[C@H](n7cc(C)c(=O)[nH]c7=O)O6)N(C)C)C[C@H](n6cnc7c(N)ncnc76)O5)N(C)C)C[C@H](n5cnc6c(=O)[nH]c(N)nc65)O4)N(C)C)C[C@H](n4ccc(N)nc4=O)O3)N(C)C)C[C@@H](COP(=O)(N(C)C)N3C[C@@H](COP(=O)(N(C)C)N4C[C@@H](COP(=O)(N(C)C)N5CCN(C(=O)CCNC(=O)CCCCCNC(=O)[C@H](Cc6ccccc6)NC(=O)[C@H](Cc6ccccc6)NC(=O)[C@H](CCCNC(=N)N)NC(=O)[C@H](Cc6ccccc6)NC(=O)[C@H](Cc6ccccc6)NC(=O)[C@H](CCCNC(=N)N)NC(=O)[C@H](Cc6ccccc6)NC(=O)[C@H](Cc6ccccc6)NC(=O)[C@@H](N)CCCNC(=N)N)CC5)O[C@@H](n5ccc(N)nc5=O)C4)O[C@@H](n4cc(C)c(=O)[nH]c4=O)C3)O2)c(=O)[nH]c1=O` (some centres undefined), the Ratio in the assay on Escherichia coli [1] came to 2.5. Moreover, the minimum inhibitory concentration (MIC) in the assay with Escherichia coli [2] was determined as 2.5 µM (≈ 13.3 µg/mL). For `Cc1cn([C@H]2CN(P(=O)(OC[C@@H]3CN(P(=O)(OC[C@@H]4CN(P(=O)(OC[C@@H]5CN(P(=O)(OC[C@@H]6CN(P(=O)(OC[C@@H]7CN(P(=O)(OC[C@@H]8CN(P(=O)(OC[C@@H]9CN(P(=O)(OC[C@@H]%10CNC[C@H](n%11cnc%12c(=O)[nH]c(N)nc%12%11)O%10)N(C)C)C[C@H](n%10cc(C)c(=O)[nH]c%10=O)O9)N(C)C)C[C@H](n9cnc%10c(=O)[nH]c(N)nc%109)O8)N(C)C)C[C@H](n8cnc9c(N)ncnc98)O7)N(C)C)C[C@H](n7cc(C)c(=O)[nH]c7=O)O6)N(C)C)C[C@H](n6cnc7c(N)ncnc76)O5)N(C)C)C[C@H](n5cnc6c(=O)[nH]c(N)nc65)O4)N(C)C)C[C@H](n4ccc(N)nc4=O)O3)N(C)C)C[C@@H](COP(=O)(N(C)C)N3C[C@@H](COP(=O)(N(C)C)N4C[C@@H](COP(=O)(N(C)C)N5CCN(C(=O)CCNC(=O)CCCCCNC(=O)[C@H](Cc6ccccc6)NC(=O)[C@H](Cc6ccccc6)NC(=O)[C@H](CCCNC(=N)N)NC(=O)[C@H](Cc6ccccc6)NC(=O)[C@H](Cc6ccccc6)NC(=O)[C@@H](N)CCCNC(=N)N)CC5)O[C@@H](n5ccc(N)nc5=O)C4)O[C@@H](n4cc(C)c(=O)[nH]c4=O)C3)O2)c(=O)[nH]c1=O` (some centres undefined), the MIC with Escherichia coli [2] is 20 µM (≈ 97.4 µg/mL). The same measure, in the same setting: under `Cc1cn([C@H]2CN(P(=O)(OC[C@@H]3CN(P(=O)(OC[C@@H]4CN(P(=O)(OC[C@@H]5CN(P(=O)(OC[C@@H]6CN(P(=O)(OC[C@@H]7CN(P(=O)(OC[C@@H]8CN(P(=O)(OC[C@@H]9CN(P(=O)(OC[C@@H]%10CNC[C@H](n%11cnc%12c(=O)[nH]c(N)nc%12%11)O%10)N(C)C)C[C@H](n%10cc(C)c(=O)[nH]c%10=O)O9)N(C)C)C[C@H](n9cnc%10c(=O)[nH]c(N)nc%109)O8)N(C)C)C[C@H](n8cnc9c(N)ncnc98)O7)N(C)C)C[C@H](n7cc(C)c(=O)[nH]c7=O)O6)N(C)C)C[C@H](n6cnc7c(N)ncnc76)O5)N(C)C)C[C@H](n5cnc6c(=O)[nH]c(N)nc65)O4)N(C)C)C[C@H](n4ccc(N)nc4=O)O3)N(C)C)C[C@@H](COP(=O)(N(C)C)N3C[C@@H](COP(=O)(N(C)C)N4C[C@@H](COP(=O)(N(C)C)N5CCN(C(=O)CCNC(=O)CCCCCNC(=O)[C@H](CCCNC(=N)N)NC(=O)CCCCCNC(=O)[C@H](CCCNC(=N)N)NC(=O)CCCCCNC(=O)[C@H](CCCNC(=N)N)NC(=O)CCCCCNC(=O)[C@@H](N)CCCNC(=N)N)CC5)O[C@@H](n5ccc(N)nc5=O)C4)O[C@@H](n4cc(C)c(=O)[nH]c4=O)C3)O2)c(=O)[nH]c1=O` (some centres undefined) stands 80 µM (≈ 394 µg/mL). The same measure, in the same setting: under `Cc1cn([C@H]2CN(P(=O)(OC[C@@H]3CN(P(=O)(OC[C@@H]4CN(P(=O)(OC[C@@H]5CN(P(=O)(OC[C@@H]6CN(P(=O)(OC[C@@H]7CN(P(=O)(OC[C@@H]8CN(P(=O)(OC[C@@H]9CN(P(=O)(OC[C@@H]%10CNC[C@H](n%11cnc%12c(=O)[nH]c(N)nc%12%11)O%10)N(C)C)C[C@H](n%10cc(C)c(=O)[nH]c%10=O)O9)N(C)C)C[C@H](n9cnc%10c(=O)[nH]c(N)nc%109)O8)N(C)C)C[C@H](n8cnc9c(N)ncnc98)O7)N(C)C)C[C@H](n7cc(C)c(=O)[nH]c7=O)O6)N(C)C)C[C@H](n6cnc7c(N)ncnc76)O5)N(C)C)C[C@H](n5cnc6c(=O)[nH]c(N)nc65)O4)N(C)C)C[C@H](n4ccc(N)nc4=O)O3)N(C)C)C[C@@H](COP(=O)(N(C)C)N3C[C@@H](COP(=O)(N(C)C)N4C[C@@H](COP(=O)(N(C)C)N5CCN(C(=O)CCNC(=O)CCCCCNC(=O)[C@@H](N)CCCNC(=O)CCCCCNC(=O)[C@@H](N)CCCNC(=O)CCCCCNC(=O)[C@@H](N)CCCNC(=O)CCCCCNC(=O)[C@@H](N)CCCNC(=O)CCCCCNC(=O)[C@@H](N)CCCNC(=O)CCCCCNC(=O)[C@@H](N)CCCN)CC5)O[C@@H](n5ccc(N)nc5=O)C4)O[C@@H](n4cc(C)c(=O)[nH]c4=O)C3)O2)c(=O)[nH]c1=O` (some centres undefined) stands more than 80 µM. The same measure, in the same setting: to `Cc1cn([C@H]2CN(P(=O)(OC[C@@H]3CN(P(=O)(OC[C@@H]4CN(P(=O)(OC[C@@H]5CN(P(=O)(OC[C@@H]6CN(P(=O)(OC[C@@H]7CN(P(=O)(OC[C@@H]8CN(P(=O)(OC[C@@H]9CN(P(=O)(OC[C@@H]%10CNC[C@H](n%11cnc%12c(=O)[nH]c(N)nc%12%11)O%10)N(C)C)C[C@H](n%10cc(C)c(=O)[nH]c%10=O)O9)N(C)C)C[C@H](n9cnc%10c(=O)[nH]c(N)nc%109)O8)N(C)C)C[C@H](n8cnc9c(N)ncnc98)O7)N(C)C)C[C@H](n7cc(C)c(=O)[nH]c7=O)O6)N(C)C)C[C@H](n6cnc7c(N)ncnc76)O5)N(C)C)C[C@H](n5cnc6c(=O)[nH]c(N)nc65)O4)N(C)C)C[C@H](n4ccc(N)nc4=O)O3)N(C)C)C[C@@H](COP(=O)(N(C)C)N3C[C@@H](COP(=O)(N(C)C)N4C[C@@H](COP(=O)(N(C)C)N5CCN(C(=O)CCNC(=O)CCCCCNC(=O)[C@H](CCCCN)NC(=O)[C@H](Cc6ccccc6)NC(=O)[C@H](Cc6ccccc6)NC(=O)[C@H](CCCCN)NC(=O)[C@H](Cc6ccccc6)NC(=O)[C@H](Cc6ccccc6)NC(=O)[C@H](CCCCN)NC(=O)[C@H](Cc6ccccc6)NC(=O)[C@H](Cc6ccccc6)NC(=O)[C@@H](N)CCCCN)CC5)O[C@@H](n5ccc(N)nc5=O)C4)O[C@@H](n4cc(C)c(=O)[nH]c4=O)C3)O2)c(=O)[nH]c1=O` (some centres undefined) belongs 10 µM (≈ 53.6 µg/mL); to `Cc1cn([C@H]2CN(P(=O)(OC[C@@H]3CN(P(=O)(OC[C@@H]4CN(P(=O)(OC[C@@H]5CN(P(=O)(OC[C@@H]6CN(P(=O)(OC[C@@H]7CN(P(=O)(OC[C@@H]8CN(P(=O)(OC[C@@H]9CN(P(=O)(OC[C@@H]%10CNC[C@H](n%11cnc%12c(=O)[nH]c(N)nc%12%11)O%10)N(C)C)C[C@H](n%10cc(C)c(=O)[nH]c%10=O)O9)N(C)C)C[C@H](n9cnc%10c(=O)[nH]c(N)nc%109)O8)N(C)C)C[C@H](n8cnc9c(N)ncnc98)O7)N(C)C)C[C@H](n7cc(C)c(=O)[nH]c7=O)O6)N(C)C)C[C@H](n6cnc7c(N)ncnc76)O5)N(C)C)C[C@H](n5cnc6c(=O)[nH]c(N)nc65)O4)N(C)C)C[C@H](n4ccc(N)nc4=O)O3)N(C)C)C[C@@H](COP(=O)(N(C)C)N3C[C@@H](COP(=O)(N(C)C)N4C[C@@H](COP(=O)(N(C)C)N5CCN(C(=O)CCNC(=O)CCCCCNC(=O)[C@H](CCCNC(=N)N)NC(=O)CCNC(=O)[C@H](CCCNC(=N)N)NC(=O)[C@H](CCCNC(=N)N)NC(=O)CCCCCNC(=O)[C@H](CCCNC(=N)N)NC(=O)NC(=O)[C@H](CCCNC(=N)N)NC(=O)CCNC(=O)[C@H](CCCNC(=N)N)NC(=O)[C@H](CCCNC(=N)N)NC(=O)CCCCCNC(=O)[C@@H](N)CCCNC(=N)N)CC5)O[C@@H](n5ccc(N)nc5=O)C4)O[C@@H](n4cc(C)c(=O)[nH]c4=O)C3)O2)c(=O)[nH]c1=O` (some centres undefined), 2.5 µM (≈ 14.1 µg/mL). Regarding `Cc1cn([C@H]2CN(P(=O)(OC[C@@H]3CN(P(=O)(OC[C@@H]4CN(P(=O)(OC[C@@H]5CN(P(=O)(OC[C@@H]6CN(P(=O)(OC[C@@H]7CN(P(=O)(OC[C@@H]8CN(P(=O)(OC[C@@H]9CN(P(=O)(OC[C@@H]%10CNC[C@H](n%11cnc%12c(=O)[nH]c(N)nc%12%11)O%10)N(C)C)C[C@H](n%10cc(C)c(=O)[nH]c%10=O)O9)N(C)C)C[C@H](n9cnc%10c(=O)[nH]c(N)nc%109)O8)N(C)C)C[C@H](n8cnc9c(N)ncnc98)O7)N(C)C)C[C@H](n7cc(C)c(=O)[nH]c7=O)O6)N(C)C)C[C@H](n6cnc7c(N)ncnc76)O5)N(C)C)C[C@H](n5cnc6c(=O)[nH]c(N)nc65)O4)N(C)C)C[C@H](n4ccc(N)nc4=O)O3)N(C)C)C[C@@H](COP(=O)(N(C)C)N3C[C@@H](COP(=O)(N(C)C)N4C[C@@H](COP(=O)(N(C)C)N5CCN(C(=O)CCNC(=O)CCCCCNC(=O)[C@H](CCCCN)NC(=O)CCCCNC(=O)[C@H](CCCCN)NC(=O)[C@H](CCCCN)NC(=O)CCCCNC(=O)[C@H](CCCCN)NC(=O)[C@H](CCCCN)NC(=O)CCCCNC(=O)[C@H](CCCCN)NC(=O)[C@H](CCCCN)NC(=O)CCCCNC(=O)[C@@H](N)CCCCN)CC5)O[C@@H](n5ccc(N)nc5=O)C4)O[C@@H](n4cc(C)c(=O)[nH]c4=O)C3)O2)c(=O)[nH]c1=O` (some centres undefined), the MIC in the assay with Escherichia coli [2] is 20 µM (≈ 108 µg/mL). Still for that read-out and setting: to `Cc1cn([C@H]2CN(P(=O)(OC[C@@H]3CN(P(=O)(OC[C@@H]4CN(P(=O)(OC[C@@H]5CN(P(=O)(OC[C@@H]6CN(P(=O)(OC[C@@H]7CN(P(=O)(OC[C@@H]8CN(P(=O)(OC[C@@H]9CN(P(=O)(OC[C@@H]%10CNC[C@H](n%11cnc%12c(=O)[nH]c(N)nc%12%11)O%10)N(C)C)C[C@H](n%10cc(C)c(=O)[nH]c%10=O)O9)N(C)C)C[C@H](n9cnc%10c(=O)[nH]c(N)nc%109)O8)N(C)C)C[C@H](n8cnc9c(N)ncnc98)O7)N(C)C)C[C@H](n7cc(C)c(=O)[nH]c7=O)O6)N(C)C)C[C@H](n6cnc7c(N)ncnc76)O5)N(C)C)C[C@H](n5cnc6c(=O)[nH]c(N)nc65)O4)N(C)C)C[C@H](n4ccc(N)nc4=O)O3)N(C)C)C[C@@H](COP(=O)(N(C)C)N3C[C@@H](COP(=O)(N(C)C)N4C[C@@H](COP(=O)(N(C)C)N5CCN(C(=O)CCNC(=O)CCCCCNC(=O)[C@@H](N)CCCNC(=O)CCCCCNC(=O)[C@@H](N)CCCNC(=O)[C@@H](N)CCCNC(=O)CCCCCNC(=O)[C@@H](N)CCCNC(=O)[C@@H](N)CCCNC(=O)CCCCCNC(=O)[C@@H](N)CCCNC(=O)[C@@H](N)CCCNC(=O)CCCCCNC(=O)[C@@H](N)CCCN)CC5)O[C@@H](n5ccc(N)nc5=O)C4)O[C@@H](n4cc(C)c(=O)[nH]c4=O)C3)O2)c(=O)[nH]c1=O` (some centres undefined) belongs 10 µM (≈ 53.3 µg/mL).

The term MIC denotes the lowest concentration found to suppress growth. A lower MIC goes with inhibition by little substance.

Source of the values: ChEMBL document CHEMBL1629608, “Variations in amino acid composition of antisense peptide-phosphorodiamidate morpholino oligomer affect potency against Escherichia coli in vitro and in vivo” (Antimicrob Agents Chemother, 2009).
